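Following 48 hours of exposure in 96-well plates, responses at five concentrations were used to interpolate endpoints linearly. Here, GI50 denotes the concentration required for 50% inhibition of growth. TGI is the concentration that stops growth completely.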
Tests used:
Test in all cases: inhibition of tumour cell growth, NCI panel, 48 h
[1] = system: HCT-15 colon
[2] = system: SF-268 CNS
[3] = system: UACC-257 melanoma
[4] = system: COLO 205 colon
[5] = system: NCI-H226 lung
[6] = system: A549 NSCLC
[7] = system: SNB-75 CNS
[8] = system: SK-MEL-2 melanoma
[9] = system: K-562 leukemia
[10] = system: OVCAR-8 ovarian
[11] = system: PC-3 prostate
[12] = system: DU-145 prostate
[13] = system: SK-OV-3 ovarian
[14] = system: IGROV1 ovarian
[15] = system: U251 CNS
[16] = system: HCT-116 colon
[17] = system: MDA-MB-231 breast
[18] = system: LOX IMVI melanoma
[19] = system: HT29 colon
[20] = system: RXF 393 renal
[21] = system: SN12C renal
[22] = system: OVCAR-5 ovarian
[23] = system: A498 renal
[24] = system: OVCAR-3 ovarian
[25] = system: SNB-19 CNS
[26] = system: OVCAR-4 ovarian
[27] = system: NCI/ADR-RES ovarian
[28] = system: SK-MEL-28 melanoma
[29] = system: SK-MEL-5 melanoma
[30] = system: MOLT-4 leukemia
[31] = system: KM12 colon
[32] = system: HS 578T breast
[33] = system: EKVX NSCLC
[34] = system: MCF7 breast
[35] = system: CAKI-1 renal
[36] = system: SR leukemia
[37] = system: HOP-62 NSCLC
[38] = system: NCI-H460 lung
[39] = system: UACC-62 melanoma
[40] = system: HOP-92 NSCLC
[41] = system: SW-620 colon
[42] = system: NCI-H23 lung
[43] = system: MDA-MB-435
[44] = system: BT-549 breast
[45] = system: M14 melanoma
[46] = system: UO-31 renal
[47] = system: HL-60(TB) leukemia
[48] = system: RPMI-8226 leukemia
[49] = system: NCI-H522 lung
[50] = system: ACHN renal
[51] = system: 786-0 renal
[52] = system: SF-295 CNS
[53] = system: SF-539 CNS

With `COc1ncnc(NS(=O)(=O)c2ccc(N=C3C(=O)N(CN4CCN(c5c(F)cc6c(=O)c(C(=O)O)cn(C7CC7)c6c5OC)CC4C)c4ccc(Cl)cc43)cc2)c1OC` (stereo unspecified) the GI50 [1] was 7.48 µM, the TGI [1] was 23 µM and the GI50 [2] was 10.7 µM. It also gave a TGI [2] greater than 50 µM, a GI50 [3] of 6.32 µM and a TGI [3] of 14.7 µM. It also gave a GI50 [4] of 19.6 µM, a TGI [4] greater than 50 µM and a GI50 [5] of 27.1 µM. For the same compound, the TGI [5] was greater than 50 µM, the GI50 [6] was 21.2 µM and the TGI [6] was greater than 50 µM. For the same compound, the GI50 [7] was greater than 50 µM, the TGI [7] was greater than 50 µM and the GI50 [8] was 35.2 µM. For the same compound, the TGI [8] was greater than 50 µM, the GI50 [9] was 20.5 µM and the TGI [9] was greater than 50 µM. For the same compound, the GI50 [10] was 14 µM, the TGI [10] was greater than 50 µM and the GI50 [11] was 9.39 µM. The TGI [11] was greater than 50 µM, the GI50 [12] was 21 µM and the TGI [12] was greater than 50 µM. It also gave a GI50 [13] of 37.7 µM, a TGI [13] greater than 50 µM and a GI50 [14] of 20 µM. For the same compound, the TGI [14] was greater than 50 µM, the GI50 [15] was 9.61 µM and the TGI [15] was 45.2 µM. The GI50 [16] was 11.5 µM, the TGI [16] was greater than 50 µM and the GI50 [17] was 6.3 µM. For the same compound, the TGI [17] was greater than 50 µM, the GI50 [18] was 6.89 µM and the TGI [18] was 15.6 µM. For the same compound, the GI50 [19] was 18.4 µM, the TGI [19] was greater than 50 µM and the GI50 [20] was 10.8 µM. For the same compound, the TGI [20] was 39.6 µM, the GI50 [21] was 16.9 µM and the TGI [21] was greater than 50 µM. It also gave a GI50 [22] of 19.2 µM, a TGI [22] greater than 50 µM and a GI50 [23] of 40.8 µM. For the same compound, the TGI [23] was greater than 50 µM, the GI50 [24] was 13.1 µM and the TGI [24] was greater than 50 µM. The GI50 [25] was greater than 50 µM, the TGI [25] was greater than 50 µM and the GI50 [26] was 37.7 µM. The TGI [26] was greater than 50 µM, the GI50 [27] was 8.76 µM and the TGI [27] was 42.1 µM. It also gave a GI50 [28] of 26.1 µM, a TGI [28] greater than 50 µM and a GI50 [29] of 8.63 µM. The TGI [29] was 16.5 µM, the GI50 [30] was greater than 50 µM and the TGI [30] was greater than 50 µM. The GI50 [31] was 13 µM, the TGI [31] was greater than 50 µM and the GI50 [32] was 23.1 µM. The TGI [32] was greater than 50 µM, the GI50 [33] was 27.7 µM and the TGI [33] was greater than 50 µM. The GI50 [34] was 12 µM, the TGI [34] was greater than 50 µM and the GI50 [35] was 6.44 µM. For the same compound, the TGI [35] was 26.1 µM, the GI50 [36] was 5.3 µM and the TGI [36] was greater than 50 µM. For the same compound, the GI50 [37] was 23.4 µM, the TGI [37] was greater than 50 µM and the GI50 [38] was 11 µM. It also gave a TGI [38] greater than 50 µM, a GI50 [39] of 16.1 µM and a TGI [39] greater than 50 µM. The GI50 [40] was 10.6 µM, the TGI [40] was greater than 50 µM and the GI50 [41] was 10.7 µM. It also gave a TGI [41] greater than 50 µM, a GI50 [42] of 13.5 µM and a TGI [42] of 47.3 µM. The GI50 [43] was 9.34 µM, the TGI [43] was 19 µM and the GI50 [44] was 20.6 µM. The TGI [44] was greater than 50 µM, the GI50 [45] was 21.1 µM and the TGI [45] was greater than 50 µM. The GI50 [46] was 32.7 µM, the TGI [46] was greater than 50 µM and the GI50 [47] was 14 µM. It also gave a TGI [47] greater than 50 µM, a GI50 [48] of 8.33 µM and a TGI [48] of 28.1 µM. It also gave a GI50 [49] greater than 50 µM, a TGI [49] greater than 50 µM and a GI50 [50] of 7.17 µM. The TGI [50] was 20.6 µM, the GI50 [51] was 21.4 µM and the TGI [51] was greater than 50 µM. For the same compound, the GI50 [52] was 10.7 µM, the TGI [52] was greater than 50 µM and the GI50 [53] was 16.8 µM. It also gave a TGI [53] greater than 50 µM.

— PubChem BioAssay (NCI)
